The source of these data is US10752624B2, “Kinase inhibitors” (Origenis GmbH, priority 2012, dated 2020).

Structures are written as SMILES.

One assay has as its target T1, SYK kinase (Homo sapiens, UniProt P43405).
T1 construct: purchased Invitrogen, Carlsbad
As to the kind of experiment: SYK Assay (OMNIA Kinase Assay, SOX peptide fluorescence). It counts as biochemical. The settings on record: 1 mM ATP, 10 μM Omnia Peptide Substrate Tyr 7, 30° C., readings for 30 minutes; read-out: SYK Activities: IC50. On the procedure: In the assay OMNIA® KINASE ASSAY by Invitrogen Corporation (Carlsbad) the effect of invention of a compound on the phosphorylation is determined by measurement of fluorescence intensity of a chelation-enhanced fluorophore called SOX. Upon phosphorylation of the peptide by the kinase of interest, Mg2+ is chelated to form a bridge between the SOX moiety and the phosphate group that is transferred to the specific tyrosine on the peptide. The fluorescence intensity is directly proportional to the amount of peptide phosphorylation.
To the wells of an 384 well small volume plate (Greiner, Frickenhausen) are added (i) the compound under test in 5% DMSO/distilled water (2 μl), (ii) 16 μl of the master mix containing ATP, DTT, Kinase Reaction Buffer, Omina Peptide Substrate Tyr 7 resulting in a final concentration of 1 mM ATP, 0.2 mM DTT and 10 μM Peptide Substrate.
The Master Mix and the assay plate was incubated to reaction temperature before the measurement (30° C.). The reaction was started with addition of (iii) 2 μl 4 μg/ml SYK kinase (Invitrogen, Carlsbad). During measurement fluorescence intensity readings were collected using a TECAN M1000 at a wavelength of λex 360/λem 485 nm every 30 s for 30 minutes. The reaction velocity was plotted versus the inhibitor concentration to determine the IC50 using XLFit 5.0 (IDBS, Guildford) to fit to a sigmoidal dose response curve.

In the next assay the target is LRRK2 (Homo sapiens, UniProt Q5S007). As to the kind of experiment: LRRK2-LRRK2 G2019S-Assay (LanthaScreen Eu Kinase Binding Assay). The settings on record: 5 nM LRRK2, 10 nM tracer 236, 2 nM EU-Anti-GST antibody, 1 h at RT; read-out: LRRK2 Activities: IC50. A digest of the protocol: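 In a TR-FRET tracer displacement assay, LRRK2 or its mutants at 5 nM were mixed with 2 nM Eu-anti-GST antibody and 10 nM tracer 236 in kinase buffer A for 1 h at RT. The 665/615 nm emission ratio was plotted against inhibitor concentration, and IC50 came from a variable-slope sigmoidal fit.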
LRRK2, sequence (Q5S007 970-2527 limits assumed): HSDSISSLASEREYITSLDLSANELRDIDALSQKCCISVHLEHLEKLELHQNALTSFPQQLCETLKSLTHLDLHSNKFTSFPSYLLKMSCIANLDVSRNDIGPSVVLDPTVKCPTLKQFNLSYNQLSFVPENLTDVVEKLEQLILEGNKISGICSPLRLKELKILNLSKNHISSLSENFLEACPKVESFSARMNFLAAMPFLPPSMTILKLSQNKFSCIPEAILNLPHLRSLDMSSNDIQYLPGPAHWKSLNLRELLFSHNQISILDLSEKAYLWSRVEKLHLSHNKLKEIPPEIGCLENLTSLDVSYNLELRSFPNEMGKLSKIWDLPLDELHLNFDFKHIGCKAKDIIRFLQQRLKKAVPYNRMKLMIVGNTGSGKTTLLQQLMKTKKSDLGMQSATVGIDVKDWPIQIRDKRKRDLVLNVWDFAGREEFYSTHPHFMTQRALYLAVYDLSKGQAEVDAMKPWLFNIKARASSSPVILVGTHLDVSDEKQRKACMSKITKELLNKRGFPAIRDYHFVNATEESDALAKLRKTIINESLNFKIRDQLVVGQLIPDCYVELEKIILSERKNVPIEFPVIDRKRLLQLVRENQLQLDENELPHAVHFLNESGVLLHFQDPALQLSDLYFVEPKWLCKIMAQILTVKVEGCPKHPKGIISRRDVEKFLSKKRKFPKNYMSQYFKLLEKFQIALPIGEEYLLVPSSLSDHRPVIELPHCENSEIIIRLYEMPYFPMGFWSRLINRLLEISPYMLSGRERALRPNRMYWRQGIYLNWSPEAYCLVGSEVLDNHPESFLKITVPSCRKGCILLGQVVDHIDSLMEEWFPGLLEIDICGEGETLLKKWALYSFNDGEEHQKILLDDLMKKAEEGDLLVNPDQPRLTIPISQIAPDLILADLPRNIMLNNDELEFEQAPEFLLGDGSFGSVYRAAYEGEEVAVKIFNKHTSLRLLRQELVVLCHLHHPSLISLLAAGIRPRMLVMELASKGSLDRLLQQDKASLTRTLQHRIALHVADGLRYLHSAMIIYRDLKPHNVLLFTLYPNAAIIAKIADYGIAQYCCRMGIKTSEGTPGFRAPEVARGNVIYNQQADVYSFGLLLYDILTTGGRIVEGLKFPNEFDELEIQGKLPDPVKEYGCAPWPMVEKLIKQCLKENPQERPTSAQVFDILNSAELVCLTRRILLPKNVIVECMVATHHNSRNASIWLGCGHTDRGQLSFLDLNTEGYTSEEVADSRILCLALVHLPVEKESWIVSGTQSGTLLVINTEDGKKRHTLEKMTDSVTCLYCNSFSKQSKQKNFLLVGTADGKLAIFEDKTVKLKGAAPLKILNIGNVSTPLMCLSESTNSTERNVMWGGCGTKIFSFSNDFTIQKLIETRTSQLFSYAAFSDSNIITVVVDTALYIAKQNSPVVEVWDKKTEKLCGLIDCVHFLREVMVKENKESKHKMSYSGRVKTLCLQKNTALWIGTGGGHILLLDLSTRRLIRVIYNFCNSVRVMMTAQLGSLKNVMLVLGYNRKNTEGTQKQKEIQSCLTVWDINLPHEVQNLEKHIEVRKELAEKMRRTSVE
Background: In TR-FRET formats the signal depends on donor and acceptor labels being close together.

The term IC50 denotes the midpoint of a concentration-inhibition curve. On to `CN1CCN(C2CCN(c3ccc(Nc4nc5cccc(F)c5c5cn[nH]c45)cc3)CC2)CC1` [Example 1, 9-fluoro-N-(4-(4-(4-methylpiperazin-1-yl)piperidin-1-yl)phenyl)-3H-pyrazolo[3,4-c]quinolin-4-amine], for which the IC50 on SYK kinase was 0.1 to 1 µM; on LRRK2, 0.01 to 0.1 µM.
The matching figures for `CS(=O)(=O)c1ccc2nc(Nc3cnn(CCF)c3)c3[nH]ncc3c2c1` [Example 221, N-(1-(2-fluoroethyl)-1H-pyrazol-4-yl)-8-(methylsulfonyl)-3H-pyrazolo[3,4-c]quinolin-4-amine]: less than 0.01 µM and less than 0.01 µM.
The matching figures for `COCCn1ncc(Nc2nc3ccc(S(C)(=O)=O)cc3c3cn[nH]c23)c1C#N` [Example 249, 1-(2-methoxyethyl)-4-((8-(methylsulfonyl)-3H-pyrazolo[3,4-c]quinolin-4-yl)amino)-1H-pyrazole-5-carbonitrile]: 0.1 to 1 µM and 0.01 to 0.1 µM.
On to `CSc1ccc2nc(Nc3ccc(CN(C)C)cc3)c3[nH]ncc3c2c1` [Example 48, N-(4-((dimethylamino)methyl)phenyl)-8-(methylthio)-3H-pyrazolo[3,4-c]quinolin-4-amine], for which the IC50 at SYK kinase and at LRRK2 was 0.01 to 0.1 µM in each case.
For `CS(=O)(=O)c1ccc2c(c1)nc(Nc1ccc(N3CCN(CCO)CC3)cc1)c1[nH]ncc12` [Example 303, 2-(4-(4-((7-(methylsulfonyl)-3H-pyrazolo[3,4-c]quinolin-4-yl)amino)phenyl)piperazin-1-yl)ethan-1-ol], the concentration for half-maximal inhibition (IC50) at SYK kinase was 0.01 to 0.1 µM; at LRRK2, 0.1 to 1 µM.
The matching figures for `CC(C)Cn1cc(Nc2nc3ccc(S(C)(=O)=O)cc3c3cn[nH]c23)cn1` [Example 187, N-(1-isobutyl-1H-pyrazol-4-yl)-8-(methylsulfonyl)-3H-pyrazolo[3,4-c]quinolin-4-amine]: 0.01 to 0.1 µM and less than 0.01 µM.
The matching figures for `CS(=O)(=O)c1ccc2nc(Nc3cnn(C4CCNC4)c3)c3n[nH]cc3c2c1` (stereo not drawn) [Example 327, 8-(methylsulfonyl)-N-(1-(pyrrolidin-3-yl)-1H-pyrazol-4-yl)-2H-pyrazolo[3,4-c]quinolin-4-amine]: less than 0.01 µM and less than 0.01 µM.
For the compound `COc1c(Nc2nc3ccc(S(C)(=O)=O)cc3c3cn[nH]c23)cnn1C(C)C` [Example 227, N-(1-isopropyl-5-methoxy-1H-pyrazol-4-yl)-8-(methylsulfonyl)-3H-pyrazolo[3,4-c]quinolin-4-amine], the 50% inhibitory concentration (IC50) on SYK kinase was 0.1 to 1 µM; on LRRK2, less than 0.01 µM.
`CC(C)(C#N)n1cc(Nc2nc3ccc(S(C)(=O)=O)cc3c3cn[nH]c23)cn1` [Example 172, 2-methyl-2-(4-((8-(methylsulfonyl)-3H-pyrazolo[3,4-c]quinolin-4-yl)amino)-1H-pyrazol-1-yl)propanenitrile]: the IC50 at SYK kinase is less than 0.01 µM; at LRRK2, 0.01 to 0.1 µM.
Taken in the same sequence, the figures for `CC(C)n1cc(Nc2nc3cc(S(C)(=O)=O)ccc3c3cn[nH]c23)cn1` [Example 189, N-(1-isopropyl-1H-pyrazol-4-yl)-7-(methylsulfonyl)-3H-pyrazolo[3,4-c]quinolin-4-amine] were 0.01 to 0.1 µM and 0.01 to 0.1 µM.
Taken in the same sequence, the figures for `COc1ccc2nc(Nc3cnn(C4CCNC4)c3)c3n[nH]cc3c2c1` (stereo not drawn) [Example 312, 8-methoxy-N-(1-(pyrrolidin-3-yl)-1H-pyrazol-4-yl)-2H-pyrazolo[3,4-c]quinolin-4-amine] were less than 0.01 µM and 0.01 to 0.1 µM.
For the compound `CC(=O)N1CCN(c2ccc(Nc3nc4ccc(S(C)(=O)=O)cc4c4cn[nH]c34)cc2)CC1` [Example 62, 1-(4-(4-((8-(methylsulfonyl)-3H-pyrazolo[3,4-c]quinolin-4-yl)amino)phenyl)piperazin-1-yl)ethan-1-one], the IC50 on SYK kinase was less than 0.01 µM; at LRRK2 it was 0.01 to 0.1 µM.
The matching figures for `CCc1cccc(Nc2nc3ccc(S(C)(=O)=O)cc3c3c[nH]nc23)c1` [Example 333, N-(3-ethylphenyl)-8-(methylsulfonyl)-2H-pyrazolo[3,4-c]quinolin-4-amine]: 0.1 to 1 µM and 0.01 to 0.1 µM.
Taken in the same sequence, the figures for `CS(=O)(=O)c1ccc2nc(Nc3cnn(C4(C#N)CCCCC4)c3)c3[nH]ncc3c2c1` [Example 179, 1-(4-((8-(methylsulfonyl)-3H-pyrazolo[3,4-c]quinolin-4-yl)amino)-1H-pyrazol-1-yl)cyclohexanecarbonitrile] were 0.01 to 0.1 µM and less than 0.01 µM.
Regarding `CC(C)n1cc(Nc2nc3ccc(S(C)(=O)=O)cc3c3cn[nH]c23)c(C#N)n1` [Example 246, 1-isopropyl-4-((8-(methylsulfonyl)-3H-pyrazolo[3,4-c]quinolin-4-yl)amino)-1H-pyrazole-3-carbonitrile], the results for the IC50 at SYK kinase and on LRRK2 were 0.1 to 1 µM and 0.01 to 0.1 µM, respectively.
Taken in the same sequence, the figures for `COCCn1cc(Nc2nc3cc(S(C)(=O)=O)ccc3c3cn[nH]c23)cn1` [Example 170, N-(1-(2-methoxyethyl)-1H-pyrazol-4-yl)-7-(methylsulfonyl)-3H-pyrazolo[3,4-c]quinolin-4-amine] were 0.1 to 1 µM and 0.1 to 1 µM.
Taken in the same sequence, the figures for `C=C(C)Cn1cc(Nc2nc3ccc(S(C)(=O)=O)cc3c3cn[nH]c23)cn1` [Example 264, N-(1-(2-methylallyl)-1H-pyrazol-4-yl)-8-(methylsulfonyl)-3H-pyrazolo[3,4-c]quinolin-4-amine] were 0.01 to 0.1 µM and less than 0.01 µM.
Taken in the same sequence, the figures for `COc1ccc2nc(Nc3cnn(CC(C)(C)O)c3)c3[nH]ncc3c2c1` [Example 298, 1-(4-((8-methoxy-3H-pyrazolo[3,4-c]quinolin-4-yl)amino)-1H-pyrazol-1-yl)-2-methylpropan-2-ol] were 0.1 to 1 µM and 0.01 to 0.1 µM.
On to `CS(=O)(=O)c1ccc2nc(Nc3ccc(N4CCC(O)CC4)cc3)c3[nH]ncc3c2c1` [Example 316, 1-(4-((8-(methylsulfonyl)-3H-pyrazolo[3,4-c]quinolin-4-yl)amino)phenyl)piperidin-4-ol], for which the half-maximal inhibitory concentration (IC50) at SYK kinase and on LRRK2 was 0.01 to 0.1 µM in each case.
Turning to `COc1ccc2nc(Nc3cnn(C4CCOCC4)c3)c3n[nH]cc3c2c1` [Example 85, 8-methoxy-N-(1-(tetrahydro-2H-pyran-4-yl)-1H-pyrazol-4-yl)-2H-pyrazolo[3,4-c]quinolin-4-amine], the IC50 is 0.1 to 1 µM on SYK kinase and 0.01 to 0.1 µM at LRRK2.
The matching figures for `COc1nn(C(C)C)cc1Nc1nc2cccc(OC)c2c2cn[nH]c12` [Example 224, N-(1-isopropyl-3-methoxy-1H-pyrazol-4-yl)-9-methoxy-3H-pyrazolo[3,4-c]quinolin-4-amine]: 0.1 to 1 µM and less than 0.01 µM.
Turning to `COc1nn(C2CCN(C(C)(C)C)CC2)cc1Nc1nc2ccc(S(C)(=O)=O)cc2c2cn[nH]c12` [Example 228, N-(1-(1-(tert-butyl)piperidin-4-yl)-3-methoxy-1H-pyrazol-4-yl)-8-(methylsulfonyl)-3H-pyrazolo[3,4-c]quinolin-4-amine], the half-inhibitory concentration (IC50) was 0.1 to 1 µM on SYK kinase and 0.01 to 0.1 µM on LRRK2.
Turning to `CS(=O)(=O)c1ccc2nc(Nc3cnn(C4CCCOC4)c3)c3n[nH]cc3c2c1` (stereo not drawn) [Example 323, 8-(methylsulfonyl)-N-(1-(tetrahydro-2H-pyran-3-yl)-1H-pyrazol-4-yl)-2H-pyrazolo[3,4-c]quinolin-4-amine], the IC50 at SYK kinase and on LRRK2 was 0.01 to 0.1 µM throughout.
For the compound `CS(=O)(=O)c1ccc2c(c1)nc(Nc1cnn(C3CCOCC3)c1)c1[nH]ncc12` [Example 120, 7-(methylsulfonyl)-N-(1-(tetrahydro-2H-pyran-4-yl)-1H-pyrazol-4-yl)-3H-pyrazolo[3,4-c]quinolin-4-amine], the half-maximal inhibitory concentration (IC50) at SYK kinase was 0.01 to 0.1 µM; at LRRK2, less than 0.01 µM.
The matching figures for `COCCn1cc(Nc2nc3cc(SC)ccc3c3cn[nH]c23)cn1` [Example 171, N-(1-(2-methoxyethyl)-1H-pyrazol-4-yl)-7-(methylthio)-3H-pyrazolo[3,4-c]quinolin-4-amine]: 0.1 to 1 µM and 0.1 to 1 µM.
The matching figures for `COCC(C)(C)n1cc(Nc2nc3cccc(OC)c3c3cn[nH]c23)cn1` [Example 204, 9-methoxy-N-(1-(1-methoxy-2-methylpropan-2-yl)-1H-pyrazol-4-yl)-3H-pyrazolo[3,4-c]quinolin-4-amine]: 0.1 to 1 µM and less than 0.01 µM.
Taken in the same sequence, the figures for `COc1cc(C(=O)N2CCOCC2)ccc1Nc1nc2ccc(S(C)(=O)=O)cc2c2cn[nH]c12` [Example 196, (3-methoxy-4-((8-(methylsulfonyl)-3H-pyrazolo[3,4-c]quinolin-4-yl)amino)phenyl)(morpholino)methanone] were 0.1 to 1 µM and 0.01 to 0.1 µM.
